Experimental data as given in US8906868B2, “Aminoglycoside derivatives” (Rempex Pharmaceuticals, Inc., priority 2010, dated 2014).
Values after ≈ are worked out from the molar mass of the structure shown. Read-outs that look alike come from different tables or passages of the source.

Columns and labels:
[1] = tested on: various bacteria; test: MICs of 44 and 45, representative strains and strains expressing aminoglycoside modifying enzymes; format: cell-based; details: Tables 7 and 8, frequently
Protocol: To compare microbiological activity of the test compounds, minimum inhibitory concentrations (MIC.s) were determined. Antibiotic MICs were obtained using the broth microdilution method according to Clinical and Laboratory Standards Institute (CLSI) approved guidelines (Methods for dilution antimicrobial susceptibility tests for bacteria that grow aerobically; approved standard—7th ed. CLSI document M7-A7. Clinical and Laboratory Standards Institute, Wayne, Pa., incorporated herein by reference in its entirety). Antibiotics were dissolved as specified by CLSI (Performance standards for antimicrobial susceptibility testing; Seventeenth informational supplement. CLSI document M100-S17. Clinical and Laboratory Standards Institute, Wayne, Pa., incorporated herein by reference in its entirety), and were serially diluted 2-fold in cation adjusted Mueller Hinton Broth (CaMHB) at 2× concentration. Bacterial inoculums were prepared in CaMHB by suspension of a colony from an agar plate that was prepared the previous day to obtain a final concentration of 5×10^5CFU/ml. The plates were incubated for 18 hours at 35° C. […] MIC.s were determined by reading the turbidity of plate wells using a SpectraMax Plus384 plate reader (Molecular Devices, Sunnyvale, Calif., USA) at 600 nm and were confirmed by visual inspection.

[2] = tested on: Pseudomonas aeruginosa (ATCC 27853); test: MIC, broth microdilution; details: Pseudomonas aeruginosa
[3] = tested on: rats; test: Nephrotoxicity of test compounds in rats; details: once daily subcutaneous
[4] = ATCC27853, read-out: Compound MIC on Bacterial Strains: P. aeruginosa ATCC 27853
[5] = ATCC27853, read-out: Compound MIC on Bacterial Strains: Pseudomonas aeruginosa PAM3034 ATCC 27853
[6] = ATCC27853, read-out: MIC Pseudomonas aeruginosa PAM3034 ATCC 27853

Row | SMILES | fold more active than 45 (MIC) [1] | MIC [2, 4] [µg/mL] | MIC [2, 5] [µg/mL] | MIC [2, 6] [µg/mL] | Histopathology Results After 7 days of Dosing ([3]; 30 mg/kg/day) | Histopathology Results After 14 days of Dosing ([3]; 30 mg/kg/day) | Histopathology Results After 7 days of Dosing ([3]; 60 mg/kg/day) | Histopathology Results After 14 days of Dosing ([3]; 60 mg/kg/day)
1 | CN[C@@H]1C(O)[C@@H](OC2C(O)C(O[C@H]3O[C@H](CNC[C@@H](O)CO)CCC3N)[C@@H](N)C[C@H]2NC(=O)[C@@H](O)CN)OCC1(C)O (some centres unmarked) [Compound 44] | 2- to 4 fold | 1 to 8 (≈ 1.64 to 13.1 µM) | 1 to 8 (≈ 1.64 to 13.1 µM) | 1 to 8 (≈ 1.64 to 13.1 µM) | No change | No change | No change | Minimal Hyaline-droplet
2 | CN[C@@H]1[C@@H](O)[C@@H](O[C@@H]2[C@@H](O)[C@H](O[C@H]3O[C@H](CNC[C@H](O)CO)CC[C@H]3N)[C@@H](N)C[C@H]2NC(=O)[C@@H](O)CN)OC[C@]1(C)O [Compound 45, (S)-3-amino-N-((1R,2S,3S,4R,5S)-5-amino-4-((2R,3R,6S)-3-amino-6-(((S)-2,3-dihydroxypropylamino)methyl)tetrahydro-2H-pyran-2-yloxy)-2-((2R,3R,4R,5R)-3,5-dihydroxy-5-methyl-4-(methylamino)tetrahydro-2H-pyran-2-yloxy)-3-hydroxycyclohexyl)-2-hydroxypropanamide] |  | 1 to 8 (≈ 1.64 to 13.1 µM) | 1 to 8 (≈ 1.64 to 13.1 µM) | 1 to 8 (≈ 1.64 to 13.1 µM) |  |  |  | 
